Counter-ions that a name gives are not always drawn. Like-named read-outs stand apart in the source and are kept apart here.
Tests used:
[1] = target: T1, KCNQ2 (Homo sapiens, UniProt O43526, F104A); assay: cryo-EM structure ([…] Å), closed state; assay type: binding
T1 construct: residues 64–674; with calmodulin (CaM)

[2] = target: T2, KCNQ2 (Homo sapiens, UniProt O43526); assay: cryo-EM structure ([…] Å); whole-cell patch clamp in CHO cells for the EC50; assay type: cell-based; parameters: wild-type human KCNQ2 cDNA in pcDNA5/FRT, expressed in CHO cells, whole-cell patch clamp; no CaM co-transfection stated; not the 64-674 cryo-EM construct
Target sequence in this assay (O43526 whole entry, the tested form may be a part): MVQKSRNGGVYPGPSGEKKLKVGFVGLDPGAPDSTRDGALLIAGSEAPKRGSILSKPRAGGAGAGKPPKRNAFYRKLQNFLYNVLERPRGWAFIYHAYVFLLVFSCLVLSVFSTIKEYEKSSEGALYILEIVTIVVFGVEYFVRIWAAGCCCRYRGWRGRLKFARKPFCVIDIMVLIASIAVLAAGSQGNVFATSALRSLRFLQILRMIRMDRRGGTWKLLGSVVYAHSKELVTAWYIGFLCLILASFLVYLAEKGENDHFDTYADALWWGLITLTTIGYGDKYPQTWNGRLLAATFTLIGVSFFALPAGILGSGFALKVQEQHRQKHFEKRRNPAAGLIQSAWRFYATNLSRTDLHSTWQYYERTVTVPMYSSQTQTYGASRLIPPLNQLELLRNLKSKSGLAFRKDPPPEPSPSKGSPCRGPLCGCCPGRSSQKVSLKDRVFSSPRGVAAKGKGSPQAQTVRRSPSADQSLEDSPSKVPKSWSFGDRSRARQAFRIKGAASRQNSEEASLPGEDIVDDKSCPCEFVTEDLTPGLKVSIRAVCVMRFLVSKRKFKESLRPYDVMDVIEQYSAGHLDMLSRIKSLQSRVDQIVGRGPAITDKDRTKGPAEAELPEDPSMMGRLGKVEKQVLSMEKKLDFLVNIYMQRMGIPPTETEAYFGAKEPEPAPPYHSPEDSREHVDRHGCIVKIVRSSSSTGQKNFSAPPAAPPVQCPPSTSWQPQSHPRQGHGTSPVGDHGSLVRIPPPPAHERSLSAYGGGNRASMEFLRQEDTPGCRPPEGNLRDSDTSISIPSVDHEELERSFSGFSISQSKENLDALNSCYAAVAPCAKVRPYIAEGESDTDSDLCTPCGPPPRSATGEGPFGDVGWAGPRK

[3] = target: T2, KCNQ2; assay: as above; assay type: cell-based; parameters: residues 64–674; with calmodulin (CaM)
[4] = target: T1, KCNQ2; assay: cryo-EM structure ([…] Å), open state, with one CBD co-bound; assay type: binding
[5] = target: T2, KCNQ2; assay: cryo-EM structure ([…] Å), with CBD co-bound; parameters: residues 64–674; with calmodulin (CaM)
[6] = target: the molecule itself; assay: cryo-EM structure; KCNQ2 (strep tag) and CaM (His tag) co-expressed in HEK293S, complex purified on Strep-Tactin and Superose 6 in 20 mM Tris pH 8.0, 150 mM KCl, 0.02% GDN; incubated with 0.25 mM CBD, 0.15 mM HN37 and/or 1 mM PIP2; C4 symmetry; closed and open states

T1 sequence (O43526 64-674 F104A): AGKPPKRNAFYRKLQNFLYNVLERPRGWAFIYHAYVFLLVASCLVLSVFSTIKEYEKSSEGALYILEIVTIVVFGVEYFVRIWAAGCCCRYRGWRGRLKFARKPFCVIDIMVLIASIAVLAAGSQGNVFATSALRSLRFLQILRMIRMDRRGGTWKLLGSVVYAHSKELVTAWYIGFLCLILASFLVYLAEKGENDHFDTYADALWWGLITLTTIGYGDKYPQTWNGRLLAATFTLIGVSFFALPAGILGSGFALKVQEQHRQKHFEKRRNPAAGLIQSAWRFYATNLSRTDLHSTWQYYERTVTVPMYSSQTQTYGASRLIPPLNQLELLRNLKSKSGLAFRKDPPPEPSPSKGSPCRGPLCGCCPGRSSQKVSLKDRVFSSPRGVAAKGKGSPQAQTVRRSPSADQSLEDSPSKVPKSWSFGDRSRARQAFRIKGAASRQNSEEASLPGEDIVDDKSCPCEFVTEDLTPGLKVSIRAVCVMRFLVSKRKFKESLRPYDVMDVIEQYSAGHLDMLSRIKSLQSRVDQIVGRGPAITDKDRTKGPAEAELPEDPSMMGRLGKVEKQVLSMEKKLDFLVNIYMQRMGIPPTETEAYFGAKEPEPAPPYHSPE

Molecule: C=C(C)[C@@H]1CCC(C)=C[C@H]1c1c(O)cc(CCCCC)cc1O [CBD, cannabidiol]
- cryo-EM structure (2.7 Å), closed state [1]: In both maps, CBDA molecules maintain strong densities but those for CBDB are barely observed
- EC50 [2]: 4.5 ± 1.79 µM

Molecule: C#CCN(Cc1ccc(F)cc1)c1cc(C)c(NC(=O)OC)c(C)c1 [HN37]
- EC50 [3]: 28.5 ± 2.99 nM

Molecule: CCCCCCCC(=O)OC[C@H](COP(=O)(O)O[C@@H]1[C@H](O)[C@H](O)[C@@H](OP(=O)(O)O)[C@H](OP(=O)(O)O)[C@H]1O)OC(=O)CCCCCCC [PIP2, 1,2-dioctanoyl-sn-glycero-3-phospho-(1’-myo-inositol-4’,5’-bisphosphate) (ammonium salt)]
- cryo-EM structure (3.5 Å), open state, with one CBD co-bound [4]: KCNQ2-CaMF104A-CBD-PIP2-II is in an open state with the PIP2 bound
- cryo-EM structure (3.1 Å), with CBD co-bound [5]: between VSD and PD, one PIP2 molecule is assigned, with its fatty acid chains switched by S1III/S4III and S5II

B1: human KCNQ2 (residues 64-674, C-terminal strep tag) (domain or fragment, UniProt O43526-1 64-674, looked up)
chain: AGKPPKRNAFYRKLQNFLYNVLERPRGWAFIYHAYVFLLVFSCLVLSVFSTIKEYEKSSEGALYILEIVTIVVFGVEYFVRIWAAGCCCRYRGWRGRLKFARKPFCVIDIMVLIASIAVLAAGSQGNVFATSALRSLRFLQILRMIRMDRRGGTWKLLGSVVYAHSKELVTAWYIGFLCLILASFLVYLAEKGENDHFDTYADALWWGLITLTTIGYGDKYPQTWNGRLLAATFTLIGVSFFALPAGILGSGFALKVQEQHRQKHFEKRRNPAAGLIQSAWRFYATNLSRTDLHSTWQYYERTVTVPMYSSQTQTYGASRLIPPLNQLELLRNLKSKSGLAFRKDPPPEPSPSKGSPCRGPLCGCCPGRSSQKVSLKDRVFSSPRGVAAKGKGSPQAQTVRRSPSADQSLEDSPSKVPKSWSFGDRSRARQAFRIKGAASRQNSEEASLPGEDIVDDKSCPCEFVTEDLTPGLKVSIRAVCVMRFLVSKRKFKESLRPYDVMDVIEQYSAGHLDMLSRIKSLQSRVDQIVGRGPAITDKDRTKGPAEAELPEDPSMMGRLGKVEKQVLSMEKKLDFLVNIYMQRMGIPPTETEAYFGAKEPEPAPPYHSPE
notes: Human voltage-gated potassium channel KCNQ2, N- and C-terminal regions truncated, residues 64-674; numbers count on: NP_004509.2; The vector is a modified pEZT-BM; also called WT KCNQ2; KCNQ2 of the KCNQ2-CaM complex; source: HEK293S suspension cells, BacMam baculovirus, co-expressed with CaM, purified (Strep-Tactin, Superose 6); not shown: strep tag, C-terminal, kept
- stoichiometry N [6]: 4
